One experiment has as its system HL-60 cells. Put plainly: HL-60 cell differentiation (nitro blue tetrazolium reduction). It counts as cell-based, human. Particulars: FIG. 2; for EC50: HL-60 cells, 4 days. The procedure: The study drugs were dissolved in ethanol and the concentrations determined using UV spectrophotometry. Serial dilutions were prepared so that a range of drug concentrations could be tested without changing the final concentration of ethanol (≦0.2%) present in the cell cultures.
Human promyelocytic leukemia (HL60) cells were grown in RPMI-1640 medium containing 10% fetal bovine serum. The cells were incubated at 37° C. in the presence of 5% CO2.
HL60 cells were plated at 1.2×10^5 cells/ml. Eighteen hours after plating, cells in duplicate were treated with drug. Four days later, the cells were harvested and a nitro blue tetrazolium reduction assay was performed (Collins et al., 1979; J. Exp. Med. 149:969-974). The percentage of differentiated cells was determined by counting a total of 200 cells and recording the number that contained intracellular black-blue formazan deposits. Verification of differentiation to monocytic cells was determined by measuring phagocytic activity (data not shown).

Experiment [1] relates to bone calcium mobilization. Nature of the experiment: Bone calcium mobilization (serum calcium) in vitamin D-deficient rats. Type of experiment: in vivo, rat. The conditions noted are these: 0.02% Ca diet, FIG. 4. How it is done: (§1) Male, weanling Sprague-Dawley rats were placed on Diet 11 (0.47% Ca) diet +AEK oil for one week followed by Diet 11 (0.02% Ca) +AEK oil for 3 weeks. The rats were then switched to a diet containing 0.47% Ca for one week followed by two weeks on a diet containing 0.02% Ca. Dose administration began during the last week on 0.02% calcium diet. Four consecutive ip doses were given approximately 24 hours apart. Twenty-four hours after the last dose, blood was collected from the severed neck and the concentration of serum calcium determined as a measure of bone calcium mobilization. The first 10 cm of the intestine was also collected for intestinal calcium transport analysis using the everted gut sac method.

In experiment [2] the test system is intestinal calcium transport. Put plainly: Intestinal calcium transport, everted gut sac method, vitamin D-deficient rats. Type of experiment: in vivo, rat. The conditions noted are these: FIG. 5; for intestinal calcium transport at 260 pmol/day, in words: ip, 4 consecutive days. The procedure:
as §1

Experiment [3] addresses T1, full-length recombinant rat vitamin D receptor (Rattus norvegicus, UniProt P13053).
T1 construct: Full-length recombinant rat receptor was expressed in E. coli BL21 (DE3) Codon Plus RIL cells; histidine tag (C); made in house; host or cells: E. coli BL21 (DE3) Codon Plus RIL
T1 sequence (P13053 1-423): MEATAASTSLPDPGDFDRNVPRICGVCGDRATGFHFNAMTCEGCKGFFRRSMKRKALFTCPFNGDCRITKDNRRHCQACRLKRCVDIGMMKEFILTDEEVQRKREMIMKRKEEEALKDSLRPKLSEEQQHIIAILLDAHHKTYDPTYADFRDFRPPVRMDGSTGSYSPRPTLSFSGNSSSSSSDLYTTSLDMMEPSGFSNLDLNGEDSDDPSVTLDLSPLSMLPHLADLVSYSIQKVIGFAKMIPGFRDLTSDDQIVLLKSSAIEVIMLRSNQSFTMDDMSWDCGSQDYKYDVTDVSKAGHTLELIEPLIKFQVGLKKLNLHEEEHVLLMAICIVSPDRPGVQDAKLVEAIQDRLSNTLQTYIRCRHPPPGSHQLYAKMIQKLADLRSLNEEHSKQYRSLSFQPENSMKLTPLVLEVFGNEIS
Nature of the experiment: Vitamin D receptor competitive binding with [3H]-1,25(OH)2D3. The conditions noted are these: FIG. 1. How it is done: Full-length recombinant rat receptor was expressed in E. coli BL21 (DE3) Codon Plus RIL cells and purified to homogeneity using two different column chromatography systems. The first system was a nickel affinity resin that utilizes the C-terminal histidine tag on this protein. The protein that was eluted from this resin was further purified using ion exchange chromatography (S-Sepharose Fast Flow). Aliquots of the purified protein were quick frozen in liquid nitrogen and stored at −80° C. until use. For use in binding assays, the protein was diluted in TEDK50 (50 mM Tris, 1.5 mM EDTA, pH7.4, 5 mM DTT, 150 mM KCl) with 0.1% Chaps detergent. The receptor protein and ligand concentration were optimized such that no more than 20% of the added radiolabeled ligand was bound to the receptor.
Radiolabeled and unlabeled ligands were added to 100 mcl of the diluted protein at a final ethanol concentration of ≦10%, mixed and incubated overnight on ice to reach binding equilibrium. The following day, 100 mcl of hydroxylapatite slurry (50%) was added to each tube and mixed at 10-minute intervals for 30 minutes. The hydroxylapaptite was collected by centrifugation and then washed three times with Tris-EDTA buffer (50 mM Tris, 1.5 mM EDTA, pH 7.4) containing 0.5% Titron X-100. […] Total binding was determined from the tubes containing only radiolabeled ligand.

Experiment [4] has as its system 24-hydroxylase (24Ohase) gene promoter. Nature of the experiment: In vitro transcription assay, 24-hydroxylase gene promoter luciferase reporter in ROS 17/2.8 (bone) cells. Type of experiment: cell-based. The conditions noted are these: ROS 17/2.8 cells, 24-hydroxylase promoter-luciferase, 16 hours; FIG. 3; read-out: EC50, transcriptional activity in bone cells. The procedure: Transcription activity was measured in ROS 17/2.8 (bone) cells that were stably transfected with a 24-hydroxylase (24Ohase) gene promoter upstream of a luciferase reporter gene (Arbour et al., 1998). Cells were given a range of doses. Sixteen hours after dosing the cells were harvested and luciferase activities were measured using a luminometer.
RLU=relative luciferase units.
In general terms: In a reporter assay the amount or activity of a reporter protein is the signal.

SMILES strings stand for the structures. Entries after “also recorded” stand apart in the source; their conditions may differ.

The values below come from patent publication US8222236B2, “2-methylene-(20E)-20(22)-dehydro-19-nor-vitamin D analogs” (Wisconsin Alumni Research Foundation, priority 2008, dated 2012).

As a reminder, the EC50 is the midpoint of the concentration-response curve. By Ki is commonly meant the dissociation constant of the complex between target and ligand, obtained from inhibition or displacement.

For `C=C1/C(=C\C=C2/CCC[C@]3(C)[C@@H]([C@H](C)CCCC(C)(C)O)CC[C@@H]23)C[C@@H](O)C[C@@H]1O` [1,25(OH)2D3, 1α,25-dihydroxyvitamin D3, reference compound], in the experiment on HL-60 cells, the response was half-maximal at 2 nM (EC50). The “bone calcium mobilization activity (serum calcium), in words” value in experiment [1] is listed as “increased serum calcium levels at all dosages”. Further, the “dose giving the same mobilization of bone calcium” value in experiment [1] (ip, 4 consecutive days) is recorded as 87 pmol/day. Further, the “intestinal calcium transport at 260 pmol/day, in words” value in experiment [2] was “significant increase”.

For the compound `C=C1[C@H](O)CC(=C/C=C2\CCC[C@]3(C)[C@@H](/C(C)=C/CCC(C)(C)O)CC[C@@H]23)C[C@H]1O` [Vit III 20-22E, 2-methylene-(20E)-20(22)-dehydro-19-nor-1α,25-dihydroxyvitamin D3], the “VDR binding affinity compared to 1,25(OH)2D3” value in experiment [3] is reported as “bound with the same affinity”. Further, the Ki in experiment [3] (full-length recombinant rat VDR, read-out: Ki, competition with [3H]-1,25(OH)2D3 for binding to the vitamin D receptor) is 0.1 nM. For the same compound, the “potency on HL-60 cell differentiation relative to 1,25(OH)2D3” value in the experiment on HL-60 cells was in the range of 3 to 4 times. This compound yielded an EC50 in the experiment on HL-60 cells (Homo sapiens, 96 h) of 0.8 nM. For the same compound, the EC50 in experiment [4] stood at 0.02 nM. Further, the “bone calcium mobilization activity (serum calcium), in words” value in experiment [1] was “less bone calcium mobilization activity; also recorded: relatively low, or little, activity in mobilizing calcium from bone”. In addition, in experiment [1] (ip, 4 consecutive days), the “dose at which any substantial effect on bone calcium mobilization was seen” value was 7020 pmol/day and the “dose giving the same mobilization of bone calcium” value was 780 pmol/day. Also, in experiment [2], the “intestinal calcium transport at 260 pmol/day, in words” value is on record as “promotes intestinal calcium transport”. In addition, the “intestinal calcium transport activity, in words” value in experiment [2] (vitamin D-deficient rats) is given as “about the same activity; also recorded: about the same as or equal to 1,25(OH)2D3”.
